# Measured values from ChEMBL document CHEMBL1136313, “Biological evaluation of sphingomyelin analogues as inhibitors of sphingomyelinase” (Bioorg Med Chem Lett, 2003).
# Target: T1, Sphingomyelin phosphodiesterase 2 (Rattus norvegicus, UniProt Q9ET64)
# T1 sequence (Q9ET64 whole entry): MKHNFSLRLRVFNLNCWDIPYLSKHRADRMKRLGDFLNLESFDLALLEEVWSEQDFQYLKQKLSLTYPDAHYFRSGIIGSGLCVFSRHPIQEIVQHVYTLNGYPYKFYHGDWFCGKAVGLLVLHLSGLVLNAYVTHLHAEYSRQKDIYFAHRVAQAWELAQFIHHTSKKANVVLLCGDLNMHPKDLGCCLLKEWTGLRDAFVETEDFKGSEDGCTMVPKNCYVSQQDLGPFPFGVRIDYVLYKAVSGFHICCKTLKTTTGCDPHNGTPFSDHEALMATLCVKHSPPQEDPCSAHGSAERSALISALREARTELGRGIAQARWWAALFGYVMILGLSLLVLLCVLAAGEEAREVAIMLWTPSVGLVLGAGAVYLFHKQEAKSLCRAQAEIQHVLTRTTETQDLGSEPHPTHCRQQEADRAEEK
# Experiment: Inhibitory activity against N-SMase (neutral magnesium- dependent-sphingomyelinase) using rat brain microsomes
row,Structure (SMILES),IC50 [µM]
1,CCCCCCCCCCCCC/C=C/[C@@H](O)[C@H](CNC(=O)OCc1ccncc1)NC(=O)C(C)(C)C,58
2,CCCCCCCCCCCC[C@@H](O)[C@H](COC(=O)NCc1ccncc1)NC(=O)C(C)(C)C,> 100
3,CCCCCCCCCCCCC/C=C/[C@@H](O)[C@H](COC(=O)N(O)Cc1ccncc1)NC(=O)C(C)(C)C,21
4,CCCCCCCCCC/C=C/[C@@H](O)[C@H](COC(=O)NCc1ccncc1)NC(=O)C(C)(C)C,6.8
5,CCCCCCCCCCCCCCC/C=C/[C@@H](O)[C@H](COC(=O)NCc1ccncc1)NC(=O)C(C)(C)C,6.6

# More lines, now with the values ahead:
row,IC50 [µM],Structure (SMILES)
1,45,CCCCCCCCCCCCC/C=C/[C@@H](O)[C@H](CNC(=S)NCc1ccncc1)NC(=O)C(C)(C)C
2,2.8,CCCCCCCCCCCCC/C=C/[C@@H](O)[C@H](COC(=O)NCc1ccncc1)NC(=O)C(C)(C)C
3,> 100,CCCCCCCCCCCCCCC[C@@H](O)[C@H](COC(=O)NCc1ccncc1)NC(=O)C(C)(C)C
4,2.9,CCCCCCCCCCCCC/C=C/[C@@H](O)[C@H](CNC(=O)NCc1ccncc1)NC(=O)C(C)(C)C
